Data: PubChem BioAssay (NCI)
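1) Cells in 96-well plates. 2) Compound, 48 h, 5 concentrations. 3) Linear interpolation between surrounding doses. 4) Unreached endpoint = highest concentration. TGI marks complete inhibition of growth.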

Experiments:
Test in all cases: NCI-60 cell line screen, 48 h
NCI-H226 lung = system: NCI-H226 lung
SK-MEL-28 melanoma = system: SK-MEL-28 melanoma
CAKI-1 renal = system: CAKI-1 renal
SK-OV-3 ovarian = system: SK-OV-3 ovarian
HCC-2998 colon = system: HCC-2998 colon
K-562 leukemia = system: K-562 leukemia
BT-549 breast = system: BT-549 breast
NCI-H522 lung = system: NCI-H522 lung
HL-60(TB) leukemia = system: HL-60(TB) leukemia
PC-3 prostate = system: PC-3 prostate
HCT-15 colon = system: HCT-15 colon
MDA-MB-435 = system: MDA-MB-435
ACHN renal = system: ACHN renal
EKVX NSCLC = system: EKVX NSCLC
MOLT-4 leukemia = system: MOLT-4 leukemia
CCRF-CEM leukemia = system: CCRF-CEM leukemia
NCI-H460 lung = system: NCI-H460 lung
UACC-62 melanoma = system: UACC-62 melanoma
SNB-19 CNS = system: SNB-19 CNS
OVCAR-8 ovarian = system: OVCAR-8 ovarian
LOX IMVI melanoma = system: LOX IMVI melanoma
UACC-257 melanoma = system: UACC-257 melanoma
OVCAR-3 ovarian = system: OVCAR-3 ovarian
HOP-92 NSCLC = system: HOP-92 NSCLC
SNB-75 CNS = system: SNB-75 CNS
SF-268 CNS = system: SF-268 CNS
IGROV1 ovarian = system: IGROV1 ovarian
786-0 renal = system: 786-0 renal
OVCAR-4 ovarian = system: OVCAR-4 ovarian
HT29 colon = system: HT29 colon
M14 melanoma = system: M14 melanoma
HS 578T breast = system: HS 578T breast
MCF7 breast = system: MCF7 breast
T-47D breast = system: T-47D breast
SF-295 CNS = system: SF-295 CNS
SK-MEL-5 melanoma = system: SK-MEL-5 melanoma
KM12 colon = system: KM12 colon
NCI-H23 lung = system: NCI-H23 lung
DU-145 prostate = system: DU-145 prostate
RPMI-8226 leukemia = system: RPMI-8226 leukemia
MALME-3M melanoma = system: MALME-3M melanoma
A549 NSCLC = system: A549 NSCLC
SR leukemia = system: SR leukemia
SK-MEL-2 melanoma = system: SK-MEL-2 melanoma
RXF 393 renal = system: RXF 393 renal
NCI/ADR-RES ovarian = system: NCI/ADR-RES ovarian
OVCAR-5 ovarian = system: OVCAR-5 ovarian
MDA-MB-231 breast = system: MDA-MB-231 breast
SW-620 colon = system: SW-620 colon
COLO 205 colon = system: COLO 205 colon
UO-31 renal = system: UO-31 renal
TK-10 renal = system: TK-10 renal
HCT-116 colon = system: HCT-116 colon
HOP-62 NSCLC = system: HOP-62 NSCLC
SN12C renal = system: SN12C renal
SF-539 CNS = system: SF-539 CNS
A498 renal = system: A498 renal
U251 CNS = system: U251 CNS

Q: What does the source list for `Cc1ccc(Nc2nc3nc[nH]c3c(=O)[nH]2)cc1CO`?
A: TGI (NCI-H226 lung): 31.8 µM; TGI (SK-MEL-28 melanoma): 32.1 µM; TGI (CAKI-1 renal): 29.3 µM; TGI (SK-OV-3 ovarian): 27.7 µM; TGI (HCC-2998 colon): 28.9 µM; TGI (K-562 leukemia): 40 µM; TGI (BT-549 breast): 28.4 µM; TGI (NCI-H522 lung): 24.3 µM; TGI (HL-60(TB) leukemia): 21.6 µM; TGI (PC-3 prostate): 25.4 µM; TGI (HCT-15 colon): 29.9 µM; TGI (MDA-MB-435): 29.6 µM; TGI (ACHN renal): 29.4 µM; TGI (EKVX NSCLC): 28 µM; TGI (MOLT-4 leukemia): 34.3 µM; TGI (CCRF-CEM leukemia): 36.2 µM; TGI (NCI-H460 lung): 30.7 µM; TGI (UACC-62 melanoma): 25.9 µM; TGI (SNB-19 CNS): 24.6 µM; TGI (OVCAR-8 ovarian): 30.4 µM; TGI (LOX IMVI melanoma): 36.5 µM; TGI (UACC-257 melanoma): 31.2 µM; TGI (OVCAR-3 ovarian): 29.2 µM; TGI (HOP-92 NSCLC): 21 µM; TGI (SNB-75 CNS): 29.2 µM; TGI (SF-268 CNS): 35.8 µM; TGI (IGROV1 ovarian): 28.3 µM; TGI (786-0 renal): 29.1 µM; TGI (OVCAR-4 ovarian): 31.4 µM; TGI (HT29 colon): 22 µM; TGI (M14 melanoma): 25.5 µM; TGI (HS 578T breast): 43.9 µM; TGI (MCF7 breast): 30.4 µM; TGI (T-47D breast): 27.2 µM; TGI (SF-295 CNS): 29.6 µM; TGI (SK-MEL-5 melanoma): 31.2 µM; TGI (KM12 colon): 22.7 µM; TGI (NCI-H23 lung): 33.9 µM; TGI (DU-145 prostate): 33.6 µM; TGI (RPMI-8226 leukemia): 33.7 µM; TGI (MALME-3M melanoma): 30.4 µM; TGI (A549 NSCLC): 10.2 µM; TGI (SR leukemia): 37.7 µM; TGI (SK-MEL-2 melanoma): 31.2 µM; TGI (RXF 393 renal): 30 µM; TGI (NCI/ADR-RES ovarian): 29.8 µM; TGI (OVCAR-5 ovarian): 33.6 µM; TGI (MDA-MB-231 breast): 24.7 µM; TGI (SW-620 colon): 32 µM; TGI (COLO 205 colon): 27.8 µM; TGI (UO-31 renal): 29.5 µM; TGI (TK-10 renal): 31.9 µM; TGI (HCT-116 colon): 25.4 µM

Q: What does the source list for `OC1CCN(c2c3ccccc3nc3ccccc23)CC1`?
A: TGI (NCI-H226 lung): > 100 µM; TGI (SK-MEL-28 melanoma): 5.52 µM; TGI (CAKI-1 renal): 50.5 µM; TGI (HOP-62 NSCLC): > 100 µM; TGI (SK-OV-3 ovarian): 82.7 µM; TGI (K-562 leukemia): > 100 µM; TGI (BT-549 breast): 41.1 µM; TGI (NCI-H522 lung): 7.42 µM; TGI (HL-60(TB) leukemia): > 100 µM; TGI (PC-3 prostate): > 100 µM; TGI (SN12C renal): > 100 µM; TGI (HCT-15 colon): 39.7 µM; TGI (MDA-MB-435): 54.9 µM; TGI (ACHN renal): 26.4 µM; TGI (EKVX NSCLC): > 100 µM; TGI (MOLT-4 leukemia): > 100 µM; TGI (NCI-H460 lung): 50.9 µM; TGI (UACC-62 melanoma): 99.3 µM; TGI (SNB-19 CNS): 75 µM; TGI (OVCAR-8 ovarian): 79 µM; TGI (LOX IMVI melanoma): > 100 µM; TGI (UACC-257 melanoma): 40.8 µM; TGI (OVCAR-3 ovarian): > 100 µM; TGI (HOP-92 NSCLC): > 100 µM; TGI (SNB-75 CNS): 44.7 µM; TGI (SF-268 CNS): 34 µM; TGI (IGROV1 ovarian): 40.6 µM; TGI (786-0 renal): > 100 µM; TGI (OVCAR-4 ovarian): 36.6 µM; TGI (HT29 colon): 5.44 µM; TGI (SF-539 CNS): > 100 µM; TGI (M14 melanoma): > 100 µM; TGI (HS 578T breast): > 100 µM; TGI (A498 renal): 35.6 µM; TGI (MCF7 breast): 10.3 µM; TGI (T-47D breast): 4.78 µM; TGI (SF-295 CNS): 72.9 µM; TGI (SK-MEL-5 melanoma): 35.6 µM; TGI (KM12 colon): > 100 µM; TGI (NCI-H23 lung): > 100 µM; TGI (DU-145 prostate): > 100 µM; TGI (RPMI-8226 leukemia): > 100 µM; TGI (MALME-3M melanoma): 36.9 µM; TGI (A549 NSCLC): > 100 µM; TGI (SR leukemia): > 100 µM; TGI (SK-MEL-2 melanoma): 27.6 µM; TGI (RXF 393 renal): 17.5 µM; TGI (NCI/ADR-RES ovarian): > 100 µM; TGI (OVCAR-5 ovarian): > 100 µM; TGI (U251 CNS): 51.1 µM; TGI (MDA-MB-231 breast): 84.9 µM; TGI (SW-620 colon): > 100 µM; TGI (COLO 205 colon): 9.45 µM; TGI (TK-10 renal): 22.1 µM; TGI (HCT-116 colon): > 100 µM

Q: For `Cc1cc(NN)nc2n[nH]c(N)c12`, which TGI (NCI-H226 lung) is on record?
A: > 100 µM

Q: And the TGI (SK-MEL-28 melanoma)?
A: > 100 µM

Q: What about the TGI (CAKI-1 renal) of the same molecule?
A: > 100 µM

Q: What about the TGI (HOP-62 NSCLC) of the same molecule?
A: > 100 µM

Q: What about the TGI (SK-OV-3 ovarian) of the same molecule?
A: > 100 µM

Q: And the TGI (K-562 leukemia)?
A: > 100 µM

Q: And the TGI (BT-549 breast)?
A: > 100 µM

Q: What about the TGI (NCI-H522 lung) of the same molecule?
A: > 100 µM

Q: And the TGI (PC-3 prostate)?
A: > 100 µM

Q: And the TGI (SN12C renal)?
A: > 100 µM

Q: And the TGI (HCT-15 colon)?
A: > 100 µM

Q: And the TGI (MDA-MB-435)?
A: > 100 µM

Q: And the TGI (ACHN renal)?
A: > 100 µM

Q: What about the TGI (EKVX NSCLC) of the same molecule?
A: > 100 µM

Q: What about the TGI (MOLT-4 leukemia) of the same molecule?
A: > 100 µM

Q: What about the TGI (CCRF-CEM leukemia) of the same molecule?
A: > 100 µM

Q: And the TGI (NCI-H460 lung)?
A: > 100 µM

Q: What about the TGI (UACC-62 melanoma) of the same molecule?
A: > 100 µM

Q: What about the TGI (SNB-19 CNS) of the same molecule?
A: > 100 µM

Q: What about the TGI (OVCAR-8 ovarian) of the same molecule?
A: > 100 µM

Q: What about the TGI (LOX IMVI melanoma) of the same molecule?
A: > 100 µM

Q: And the TGI (UACC-257 melanoma)?
A: > 100 µM

Q: And the TGI (OVCAR-3 ovarian)?
A: > 100 µM

Q: And the TGI (HOP-92 NSCLC)?
A: > 100 µM

Q: What about the TGI (SNB-75 CNS) of the same molecule?
A: > 100 µM

Q: What about the TGI (SF-268 CNS) of the same molecule?
A: > 100 µM

Q: What about the TGI (IGROV1 ovarian) of the same molecule?
A: > 100 µM

Q: And the TGI (786-0 renal)?
A: > 100 µM

Q: And the TGI (OVCAR-4 ovarian)?
A: > 100 µM

Q: What about the TGI (HT29 colon) of the same molecule?
A: > 100 µM

Q: What about the TGI (SF-539 CNS) of the same molecule?
A: > 100 µM

Q: What about the TGI (M14 melanoma) of the same molecule?
A: > 100 µM

Q: And the TGI (HS 578T breast)?
A: > 100 µM

Q: And the TGI (A498 renal)?
A: > 100 µM

Q: What about the TGI (MCF7 breast) of the same molecule?
A: > 100 µM

Q: And the TGI (T-47D breast)?
A: > 100 µM

Q: What about the TGI (SF-295 CNS) of the same molecule?
A: > 100 µM

Q: And the TGI (SK-MEL-5 melanoma)?
A: > 100 µM

Q: And the TGI (KM12 colon)?
A: > 100 µM

Q: What about the TGI (NCI-H23 lung) of the same molecule?
A: > 100 µM

Q: What about the TGI (DU-145 prostate) of the same molecule?
A: > 100 µM

Q: What about the TGI (RPMI-8226 leukemia) of the same molecule?
A: > 100 µM

Q: What about the TGI (MALME-3M melanoma) of the same molecule?
A: > 100 µM

Q: And the TGI (A549 NSCLC)?
A: > 100 µM

Q: And the TGI (SR leukemia)?
A: > 100 µM

Q: And the TGI (SK-MEL-2 melanoma)?
A: > 100 µM

Q: And the TGI (RXF 393 renal)?
A: > 100 µM

Q: What about the TGI (NCI/ADR-RES ovarian) of the same molecule?
A: > 100 µM

Q: And the TGI (OVCAR-5 ovarian)?
A: > 100 µM

Q: And the TGI (U251 CNS)?
A: > 100 µM

Q: What about the TGI (MDA-MB-231 breast) of the same molecule?
A: > 100 µM

Q: And the TGI (SW-620 colon)?
A: > 100 µM

Q: And the TGI (COLO 205 colon)?
A: > 100 µM

Q: What about the TGI (UO-31 renal) of the same molecule?
A: > 100 µM

Q: What about the TGI (TK-10 renal) of the same molecule?
A: > 100 µM

Q: And the TGI (HCT-116 colon)?
A: > 100 µM
